Columns and labels:
[1] = biological target: Cholinesterase (Equus caballus) (UniProt P81908); details: at 2 mg/mL
Description: Inhibition of horse BChE at 2 mg/ml by Ellman's method

[2] = biological target: Acetylcholinesterase (Electrophorus electricus) (UniProt O42275); details: at 2 mg/mL
Sequence of Acetylcholinesterase (Electrophorus electricus) (O42275 24-633 limits assumed): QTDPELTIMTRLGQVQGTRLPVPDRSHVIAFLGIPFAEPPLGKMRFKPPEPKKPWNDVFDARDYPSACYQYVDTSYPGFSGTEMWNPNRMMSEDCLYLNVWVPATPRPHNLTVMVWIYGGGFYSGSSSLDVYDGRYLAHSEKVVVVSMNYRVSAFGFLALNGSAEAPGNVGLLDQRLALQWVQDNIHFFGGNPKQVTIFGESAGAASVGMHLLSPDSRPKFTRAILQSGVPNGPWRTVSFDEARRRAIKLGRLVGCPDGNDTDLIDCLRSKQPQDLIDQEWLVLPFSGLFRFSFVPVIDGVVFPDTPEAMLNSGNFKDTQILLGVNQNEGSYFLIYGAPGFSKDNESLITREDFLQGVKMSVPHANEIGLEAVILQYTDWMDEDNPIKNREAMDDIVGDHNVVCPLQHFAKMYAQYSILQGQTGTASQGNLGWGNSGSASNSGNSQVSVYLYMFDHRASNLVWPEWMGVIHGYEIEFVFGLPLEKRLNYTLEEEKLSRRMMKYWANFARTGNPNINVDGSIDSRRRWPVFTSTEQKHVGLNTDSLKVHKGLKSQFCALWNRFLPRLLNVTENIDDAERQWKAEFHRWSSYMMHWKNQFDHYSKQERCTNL
Description: Inhibition of electric eel AChE at 2 mg/ml by Ellman's method

Sequence of Cholinesterase (Equus caballus) (P81908 whole entry): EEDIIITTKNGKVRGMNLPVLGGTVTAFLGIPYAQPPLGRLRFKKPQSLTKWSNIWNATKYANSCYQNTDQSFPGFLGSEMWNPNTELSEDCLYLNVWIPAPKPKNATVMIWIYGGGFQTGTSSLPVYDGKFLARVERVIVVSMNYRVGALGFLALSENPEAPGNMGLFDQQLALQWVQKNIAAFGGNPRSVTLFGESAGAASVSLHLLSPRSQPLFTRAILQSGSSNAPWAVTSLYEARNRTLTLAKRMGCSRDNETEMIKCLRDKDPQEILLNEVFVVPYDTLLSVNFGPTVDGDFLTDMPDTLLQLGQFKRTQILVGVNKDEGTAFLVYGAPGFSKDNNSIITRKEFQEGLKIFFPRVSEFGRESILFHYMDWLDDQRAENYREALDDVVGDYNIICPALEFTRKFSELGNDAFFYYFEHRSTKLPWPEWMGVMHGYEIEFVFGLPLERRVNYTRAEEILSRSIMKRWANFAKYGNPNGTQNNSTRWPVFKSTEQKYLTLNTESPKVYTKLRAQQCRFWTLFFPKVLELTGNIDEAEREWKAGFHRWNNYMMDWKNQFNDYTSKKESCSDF

SMILES	inhibition [1]	inhibition [2]
C[C@H]1O[C@@H](Oc2c(-c3cc(O)c(O)c(O)c3)oc3cc(O)cc(O)c3c2=O)[C@@H](O)[C@@H](O)[C@@H]1O	-2.1%	20.9%
O=c1cc(-c2ccccc2)oc2cc(O)c(O)c(O)c12	15%	-3.74%
COc1ccc2[nH]cc(CCNC(C)=O)c2c1	1.01%	15.5%
CC[C@@H]1/C=C/C=C/C[C@H](C)[C@H](O)[C@](C)(O)C(=O)[C@H](C)[C@@H](O)[C@H](C)C(=O)[C@H](C)[C@@H](O)[C@H](C)/C=C/C(=O)O[C@H]2[C@@H](C)[C@@H](CC1)O[C@@]1(CC[C@@H](C)[C@@H](C[C@H](C)O)O1)[C@@H]2C	1.56%	-5.62%
CCN1C[C@]2(COC)CC[C@H](OC)[C@]34C1[C@H]([C@H](OC)[C@H]23)[C@@]1(OC(C)=O)C[C@H](OC)[C@@]2(O)C[C@@H]4[C@@H]1[C@H]2C(=O)c1ccc(OC)cc1	9.36%	3.52%
CC[C@@H](C(=O)[C@@H](C)[C@@H](O)[C@H](C)[C@@H]1O[C@@H]([C@@H](CC)C(=O)O)CC[C@@H]1C)[C@H]1O[C@]2(C=C[C@@H](O)[C@]3(CC[C@@](C)([C@H]4CC[C@](O)(CC)[C@H](C)O4)O3)O2)[C@H](C)C[C@@H]1C	3.73%	4.25%
Cc1cc(O)c2c(c1)C(=O)c1cc(O)cc(O)c1C2=O	1.03%	24.3%
O=c1c(-c2ccc(O)cc2)coc2cc(O)ccc12	0.02%	-3.93%
COc1cc(/C=C/C(=O)O)ccc1O	-0.02%	-1.29%
CSC(=S)NCc1c[nH]c2ccccc12	-5.64%	-0.26%
CC1(C)C2CCC1(C(=O)O)C(=O)C2 (stereo not given)	-2.51%	16.7%
N[C@@H](Cn1ccc(=O)c(O)c1)C(=O)O	11.2%	7.74%
C[C@H]1O[C@@H](O[C@H]2[C@@H](O)C[C@H](O[C@H]3[C@@H](O)C[C@H](O[C@H]4CC[C@@]5(C)[C@H](CC[C@@H]6[C@@H]5CC[C@]5(C)[C@@H](C7=CC(=O)OC7)CC[C@]65O)C4)O[C@@H]3C)O[C@@H]2C)C[C@H](O)[C@@H]1O	-0.78%	-1.83%
C=C(C)[C@H]1CN[C@H](C(=O)O)[C@H]1CC(=O)O	4.53%	-5.89%
Cc1cc(Cc2cc(C)cc(C(C)(C)C)c2O)c(O)c(C(C)(C)C)c1	0.28%	-4.45%
COc1ccc(-c2coc3cc(O)ccc3c2=O)cc1	0.57%	1.62%
COc1c2c3c4c(c(OC)c(=O)c5c(O)cc(OC)c(c6c(OC)cc(O)c(c1=O)c63)c54)[C@@H](C(C)=O)[C@@](C)(O)C2 (relative stereo)	1.53%	5.56%
CC(=O)O[C@H]1CC[C@]2(C=O)[C@H]3CC[C@]4(C)[C@@H](C5=CC(=O)OC5)CC[C@]4(O)[C@@H]3CC[C@]2(O)C1	-2.95%	-2.93%
COc1cc([C@@H]2CC(=O)c3c(O)cc(O)cc3O2)ccc1O	3.1%	29.5%
c1ccc2c(c1)[nH]c1cnccc12	28.7%	-1.66%
NC[C@H]1O[C@H](O[C@H]2[C@H](O)[C@@H](O[C@H]3O[C@H](CO)[C@@H](O)[C@H](N)[C@H]3O)[C@H](N)C[C@@H]2N)[C@H](O)[C@@H](O)[C@@H]1O	-5.91%	17.6%
COc1ccc2cc1Oc1ccc(cc1)C[C@H]1c3cc(c(OC)cc3CCN1C)Oc1c(OC)c(OC)cc3c1[C@H](C2)N(C)CC3	-1.1%	15.5%

SMILES	inhibition [1]	inhibition [2]
C=C1CC[C@H]2C(=C)CC[C@H]3C(=C)C(=O)O[C@@H]3[C@@H]12	10.7%	4.06%
O=c1c(O)c(-c2ccccc2)oc2cc(O)cc(O)c12	2.59%	6.98%
COc1cc(/C=C/c2ccccc2)oc(=O)c1	-0.13%	-0.87%
CN(C)Cc1c[nH]c2ccccc12	10.6%	15.3%
CC(=O)c1c(O)c(C)c(O)c(Cc2c(O)c3c(c(C(=O)/C=C/c4ccccc4)c2O)OC(C)(C)C=C3)c1O	4.24%	15.8%
COC1=C(N)C(=O)c2nc(-c3nc(C(=O)O)c(C)c(-c4ccc(OC)c(OC)c4O)c3N)ccc2C1=O	-5.44%	-2.66%
COc1cc2c(cc1OC)[C@@H]1C(=O)c3ccc4c(c3O[C@@H]1CO2)C=CC(C)(C)O4	2.21%	-8.14%
O=c1c(O)c(-c2ccccc2O)oc2cc(O)cc(O)c12	1.68%	23%
O=c1c(O)c(-c2ccc(O)cc2O)oc2cc(O)cc(O)c12	-3.98%	18.1%
COC1=CC(=O)O[C@@H](/C=C/c2ccc3c(c2)OCO3)C1	0.15%	-4.34%
CC1=C(/C=C/C(C)=C/C=C/C(C)=C\C(=O)O)C(C)(C)CCC1	0.91%	11.5%
COc1ccc2c3c4n(c2c1)[C@H](C=C(C)C)OOC(C)(C)C[C@@H]4N1C(=O)[C@@H]2CCCN2C(=O)[C@]1(O)[C@H]3O	18%	1.5%
COc1cc(O)c2c(c1)oc(=O)c1c3cc(O)c(O)cc3oc21	11.1%	11.8%
CCOC(=O)Oc1c(OC)cc(C(=O)O[C@@H]2C[C@@H]3CN4CCc5c([nH]c6cc(OC)ccc56)[C@H]4C[C@@H]3[C@H](C(=O)OC)[C@H]2OC)cc1OC	-6.04%	-6.1%
CCCCCCCCCCCCCC(=O)O[C@@H]1[C@@H](C)[C@@]2(O)[C@@H](C=C(CO)C[C@@]3(O)C(=O)C(C)=C[C@@H]23)[C@H]2C(C)(C)[C@]12OC(C)=O	-0.91%	12.9%
CN1[C@@H]2CC[C@H]1C[C@@H](OC(=O)C(CO)c1ccccc1)C2 (stereo not given in full)	4.01%	15.2%
C/C=C(/C)C(=O)O[C@H]1C[C@@]2(C)O[C@H]2[C@@H](O)[C@@]2(C)CC[C@@](O)(C(C)C)[C@H]12	-1.91%	17.2%
CC[C@]1(O)C[C@@H]2CN(CCc3c([nH]c4ccccc34)[C@@](C(=O)OC)(c3cc4c(cc3OC)N(C)[C@H]3[C@@](O)(C(=O)OC)[C@H](OC(C)=O)[C@]5(CC)C=CCN6CC[C@]43[C@@H]65)C2)C1	0.36%	15.4%
CC(C)(O)[C@@H]1[C@H]2OC(=O)[C@@H]1[C@]1(O)C[C@H]3O[C@]34C(=O)O[C@H]2[C@]14C	1.96%	22.6%
CC(C)[C@@]1(O)[C@@H](OC(=O)c2cc[nH]c2)[C@@]2(O)[C@]3(C)C[C@@]4(O)O[C@@]5([C@H](O)[C@@H](C)CC[C@]35O)[C@@]2(O)[C@@]41C	-2.13%	21.7%
C[C@H]1[C@H](OC(=O)CCC(=O)O)O[C@@H]2O[C@@]3(C)CC[C@H]4[C@H](C)CC[C@@H]1[C@@]24OO3	4.77%	-5.55%
O=C1CCC[C@@H]2[C@H]3CCCN4CCC[C@@H](CN12)[C@@H]34	22.4%	-1.14%

SMILES	inhibition [1]	inhibition [2]
CC[C@@]1(O)C(=O)OCc2c1cc1n(c2=O)Cc2cc3cc(O)ccc3nc2-1	6.63%	-5.24%
CO[C@@H]1C[C@@H](C[C@H]2CC[C@H](C)[C@H]([C@@H](C)C(=O)O)O2)O[C@]2(O[C@](C)([C@H]3CC[C@@](C)([C@@H]4O[C@@H]([C@H]5O[C@@](O)(CO)[C@H](C)C[C@@H]5C)C[C@@H]4C)O3)C[C@H]2C)[C@@H]1C	4.98%	-7.25%
COc1ccc(-c2cc(=O)c3c(O)cc(O)cc3o2)cc1O	-6.13%	-8.89%
CC1=C2[C@H]3OC(=O)[C@@H](C)[C@@H]3CC[C@@]2(C)C=CC1=O	-3.62%	3.63%
COc1ccc(-c2cc(=O)c3ccc(O)cc3o2)cc1	6.46%	30.6%
CC1=CC(=O)C(C(C)C)=CC1=O	-0.33%	7.9%
C[C@@H]1C/C=C/C=C/C=C/C=C/[C@H](O[C@@H]2O[C@H](C)[C@@H](O)[C@H](N)[C@@H]2O)C[C@@H]2O[C@](O)(C[C@@H](O)C[C@H]3O[C@@H]3/C=C/C(=O)O1)C[C@H](O)[C@H]2C(=O)O	-8.59%	-4.37%
C[C@H]1[C@H](C)CC[C@]2(C(=O)O)CC[C@]3(C)C(=CC[C@@H]4[C@@]5(C)CC[C@H](O)C(C)(C)[C@@H]5CC[C@]43C)[C@H]12	5.32%	16.8%
CCCCC[C@H](O)/C=C/[C@@H]1[C@@H](C/C=C\CCCC(=O)O)[C@@H](O)C[C@H]1O	5.03%	12.9%
Cc1c2c(c(O)c3c(O)cccc13)C(=O)O[C@H]2[C@@H]1[C@H](O)C(=O)C(C(N)=O)=C(O)[C@H]1N(C)C	7.3%	16.9%
C=C[C@@](C)(O)CC[C@H]1C(=C)CC[C@H]2C(C)(C)CCC[C@]12C	0.47%	21.8%
O=C1C=C2C(=CCOC2O)O1 (stereo not given)	-1.78%	5.33%
CC(=O)OC[C@@]1(O)C[C@@]23CC[C@@H]4c5ccoc5C=C[C@@]4(C)[C@@H]2CC[C@@H]1C3	1.7%	14.1%
COc1cc([C@@H]2c3cc4c(cc3[C@H](O)[C@H]3COC(=O)[C@@H]23)OCO4)cc(OC)c1OC	-2.7%	27.1%
O=C1c2c(O)cc(O)cc2O[C@H](c2ccc(O)c(O)c2)[C@H]1O	0.97%	17.8%
CCCCC[C@H](O)/C=C/C1=C(CCCCCCC(=O)O)C(=O)CC1	-1.44%	15.6%
CCCCC[C@H](O)CC(=O)CCc1ccc(O)c(OC)c1	-2.06%	1.06%
CCCCCCCCCCCCC/C=C/[C@@H](O)[C@H](CO)NC(=O)CCCCC	4.36%	9.07%
C[n+]1cccc(C(=O)[O-])c1	-5.02%	-1.47%
C[C@H]1CC[C@]2(NC1)O[C@H]1C[C@H]3[C@@H]4CC[C@H]5C[C@@H](O)CC[C@]5(C)[C@H]4CC[C@]3(C)[C@H]1[C@@H]2C	6.89%	11.4%
COc1cc(-c2oc3cc(O)cc(O)c3c(=O)c2OC2O[C@H](CO[C@@H]3O[C@@H](C)[C@H](O)[C@@H](O)[C@H]3O)[C@@H](O)[C@H](O)[C@H]2O)ccc1O (stereo not given in full)	0.75%	24.8%

From ChEMBL document CHEMBL2163249, “Exploration of natural compounds as sources of new bifunctional scaffolds targeting cholinesterases and beta amyloid aggregation: the case of chelerythrine” (Bioorg Med Chem, 2012)
